# Calls of active or inactive are those of the source. No cut-off for these calls is given here.
# What was measured:
# Candida parapsilosis [1] = assay: Antifungal activity against Candida parapsilosis MTCC 3018 by well diffusion method; type: functional; settings: Lodderomyces parapsilosis
# Candida albicans [2] = assay: Antifungal activity against Candida albicans MTCC 854 by well diffusion method; type: functional
# Candida albicans [3] = assay: Antifungal activity against Candida albicans MTCC 227 by well diffusion method; type: functional
# Candida albicans [4] = assay: Antifungal activity against Candida albicans MTCC 1637 by well diffusion method; type: functional
# Candida albicans [5] = assay: Antifungal activity against Candida albicans MTCC 7315 by well diffusion method; type: functional
# Nakaseomyces glabratus = assay: Antifungal activity against Candida glabrata MTCC 3019 by well diffusion method; type: functional
# Candida albicans [6] = assay: Antifungal activity against Candida albicans MTCC 183 by well diffusion method; type: functional
# Candida parapsilosis [7] = assay: Antifungal activity against Candida parapsilosis MTCC 1744 by well diffusion method; type: functional; settings: Lodderomyces parapsilosis
# Pichia kudriavzevii = assay: Antifungal activity against Issatchenkia orientalis MTCC 3020 by well diffusion method; type: functional
# Candida albicans [8] = assay: Antifungal activity against Candida albicans MTCC 3958 by well diffusion method; type: functional
# Candida albicans [9] = assay: Antifungal activity against Candida albicans MTCC 3017 by well diffusion method; type: functional
# Candida albicans [10] = assay: Antifungal activity against Candida albicans MTCC 4748 by well diffusion method; type: functional
# Escherichia coli = assay: Antibacterial activity against Escherichia coli MTCC 739 at 80 ug/ml by modified microtiter broth dilution method; type: functional, organism-based
# Staphylococcus aureus [11] = assay: Antibacterial activity against Staphylococcus aureus MTCC 2940 at 80 ug/ml by modified microtiter broth dilution method; type: functional, organism-based
# NCI60 = assay: Cytotoxicity against human NCI60 cells; type: functional, cell-based
# [12] = tested on: Radical scavenging activity; assay: Antioxidant activity assessed as DPPH free radical scavenging activity after 48 hrs; type: functional
# [13] = Antioxidant activity of the compound assessed as inhibition of lipid peroxidation after 48 hrs; type: functional
# Bacillus subtilis = assay: Antibacterial activity against Bacillus subtilis MTCC 121 by modified microtiter broth dilution method; type: functional
# [14] = Chemical stability of the compound in antioxidant reaction; type: physicochemical
# Erythrocyte = assay: Antioxidant activity in erythrocytes assessed as inhibition of hemolysis after 48 hrs; type: functional, cell-based
# [15] = Antioxidant activity assessed as superoxide radical scavenging activity after 48 hrs; type: functional
# Micrococcus luteus [16] = assay: Antibacterial activity against Micrococcus luteus MTCC 2470 at 80 ug/ml by modified microtiter broth dilution method; type: functional, organism-based
# Pseudomonas aeruginosa = assay: Antibacterial activity against Pseudomonas aeruginosa MTCC 2453 at 80 ug/ml by modified microtiter broth dilution method; type: functional, organism-based
# Staphylococcus aureus [17] = assay: Antibacterial activity against Staphylococcus aureus MTCC 96 by modified microtiter broth dilution method; type: functional
# Raoultella planticola = assay: Antibacterial activity against Klebsiella planticola MTCC 530 by modified microtiter broth dilution method; type: functional
# [18] = Antioxidant activity assessed as superoxide radical scavenging activity; type: functional
# [19] = Antioxidant activity of the compound assessed as inhibition of lipid peroxidation; type: functional
# Staphylococcus aureus [20] = assay: Antibacterial activity against Staphylococcus aureus MTCC 96 at 80 ug/ml by modified microtiter broth dilution method; type: functional, organism-based
# Micrococcus luteus [21] = assay: Antibacterial activity against Micrococcus luteus MTCC 2470 by modified microtiter broth dilution method; type: functional
# [22] = tested on: Radical scavenging activity; assay: Antioxidant activity assessed as DPPH free radical scavenging activity; type: functional
# [23] = Antioxidant activity in erythrocytes assessed as inhibition of hemolysis; type: functional, cell-based; settings: erythrocyte
# Staphylococcus aureus [24] = assay: Antibacterial activity against Staphylococcus aureus MTCC 2940 by modified microtiter broth dilution method; type: functional
Structure (SMILES),MIC (Candida parapsilosis [1]) [µg/mL],MIC (Candida albicans [2]) [µg/mL],MIC (Candida albicans [3]),MIC (Candida albicans [4]),MIC (Candida albicans [5]) [µg/mL],MIC (Nakaseomyces glabratus),MIC (Candida albicans [6]),MIC (Candida parapsilosis [7]) [µg/mL],MIC (Pichia kudriavzevii),MIC (Candida albicans [8]) [µg/mL],MIC (Candida albicans [9]),MIC (Candida albicans [10]) [µg/mL],Activity (Escherichia coli),MIC (Bacillus subtilis) [µg/mL],Activity (Pseudomonas aeruginosa),MIC (Raoultella planticola) [µg/mL],further results
OC(Cn1cncn1)(Cn1cncn1)c1ccc(F)cc1F [FLUCONAZOLE],16,32,32 µg/mL,32 µg/mL,32,64 µg/mL,32 µg/mL,16,128 µg/mL,64,64 µg/mL,32,,,,,
COC(=O)Cc1cc(O)cc2oc(-c3ccc(OC)c(OC)c3)cc(=O)c12,,,,,,,,,,,,,inactive,9,inactive,18,Activity (Staphylococcus aureus [11]): inactive; Activity (NCI60): inactive; Activity [12]: inactive; Activity [13]: inactive; Stability [14]: Unstable; Activity (Erythrocyte): inactive; Activity [15]: inactive; Activity (Micrococcus luteus [16]): inactive; MIC (Staphylococcus aureus [17]): 37 µg/mL
COC(=O)Cc1cc(O)cc2oc(-c3ccc(Cl)c(F)c3)cc(=O)c12,9,9,inactive,inactive,9,inactive,inactive,9,inactive,4,inactive,4,inactive,75,inactive,37,EC50 [18]: 60.92 µg/mL; EC50 [19]: Not Active; Activity (Staphylococcus aureus [20]): inactive; MIC (Micrococcus luteus [21]): 18 µg/mL; EC50 [22]: 61.66 µg/mL; EC50 [23]: Not Active; MIC (Staphylococcus aureus [24]): 18 µg/mL

# From ChEMBL document CHEMBL2046382, “Synthesis, biological evaluation of 5-carbomethoxymethyl-7-hydroxy-2-pentylchromone, 5-carboethoxymethyl-4',7-dihydroxyflavone and their analogues” (Bioorg Med Chem Lett, 2012)
